Laboratory results reported in patent US11718604B2, “4-amino-6-(1,3-benzodioxole)picolinates and their use as herbicides” (Dow AgroSciences LLC, priority 2018, dated 2023).

Assays:
Type in all cases: in vivo
[1] = system: ABUTH: velvetleaf (Abutilon theophrasti); test: Post-emergent herbicidal test, velvetleaf; conditions: post-emergence, 336 h, 14 days after application, read-out: Visual Growth Reduction (%) 14 Days After Application ABUTH; for pest or weed control at 17.5 g/ha: 17.5 g ai/ha; for pest or weed control at 35 g/ha: 35 g ai/ha; for pest or weed control at 70 g/ha: 70 g ai/ha; for pest or weed control at 140 g/ha: 140 g ai/ha
In short: (§1)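 Visual injury ratings (0 = no injury, 100% = complete kill) were made 14 d after post-emergence application versus untreated plants. Treatment: track-sprayer application at 187 L/ha to plants at first/second true leaf, in aqueous acetone/DMSO with crop oil concentrate and Triton X-155, as a high rate serially halved to 1/16×.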

[2] = system: CYPES: yellow nutsedge (Cyperus esculentus); test: Post-emergent herbicidal test, yellow nutsedge; conditions: post-emergence, 336 h, 14 days after application, read-out: Visual Growth Reduction (%) 14 Days After Application CYPES; for pest or weed control at 17.5 g/ha: 17.5 g ai/ha; for pest or weed control at 35 g/ha: 35 g ai/ha; for pest or weed control at 70 g/ha: 70 g ai/ha; for pest or weed control at 140 g/ha: 140 g ai/ha
In short: as §1

[3] = system: CIRAR: Canada thistle (Cirsium arvense); test: Post-emergent herbicidal test, Canada thistle; conditions: post-emergence, 336 h, 14 days after application, read-out: Visual Growth Reduction (%) 14 Days After Application CIRAR; for pest or weed control at 17.5 g/ha: 17.5 g ai/ha; for pest or weed control at 35 g/ha: 35 g ai/ha; for pest or weed control at 70 g/ha: 70 g ai/ha; for pest or weed control at 140 g/ha: 140 g ai/ha
In short: as §1

[4] = system: DIGSA: large crabgrass (Digitaria sanguinalis); test: Post-emergent herbicidal test, large crabgrass; conditions: post-emergence, 336 h, 14 days after application, read-out: Visual Growth Reduction (%) 14 Days After Application DIGSA; for pest or weed control at 17.5 g/ha: 17.5 g ai/ha; for pest or weed control at 35 g/ha: 35 g ai/ha; for pest or weed control at 70 g/ha: 70 g ai/ha; for pest or weed control at 140 g/ha: 140 g ai/ha
In short: as §1

[5] = system: IPOHE: ivyleaf morningglory (Ipomoea hederacea); test: Post-emergent herbicidal test, ivyleaf morningglory; conditions: post-emergence, 336 h, 14 days after application, read-out: Visual Growth Reduction (%) 14 Days After Application IPOHE; for pest or weed control at 17.5 g/ha: 17.5 g ai/ha; for pest or weed control at 35 g/ha: 35 g ai/ha; for pest or weed control at 70 g/ha: 70 g ai/ha; for pest or weed control at 140 g/ha: 140 g ai/ha
In short: as §1

[6] = system: SORVU: shattercane (Sorghum bicolor); test: Post-emergent herbicidal test, shattercane; conditions: post-emergence, 336 h, 14 days after application, read-out: Visual Growth Reduction (%) 14 Days After Application SORVU; for pest or weed control at 17.5 g/ha: 17.5 g ai/ha; for pest or weed control at 35 g/ha: 35 g ai/ha; for pest or weed control at 70 g/ha: 70 g ai/ha; for pest or weed control at 140 g/ha: 140 g ai/ha
In short: as §1

[7] = system: SETFA: giant foxtail (Setaria faberi); test: Post-emergent herbicidal test, giant foxtail; conditions: post-emergence, 336 h, 14 days after application, read-out: Visual Growth Reduction (%) 14 Days After Application SETFA; for pest or weed control at 17.5 g/ha: 17.5 g ai/ha; for pest or weed control at 35 g/ha: 35 g ai/ha; for pest or weed control at 70 g/ha: 70 g ai/ha; for pest or weed control at 140 g/ha: 140 g ai/ha
In short: as §1

[8] = system: EPHHL: wild poinsettia (Euphorbia heterophylla); test: Post-emergent herbicidal test, wild poinsettia; conditions: post-emergence, 336 h, 14 days after application, read-out: Visual Growth Reduction (%) 14 Days After Application EPHHL; for pest or weed control at 17.5 g/ha: 17.5 g ai/ha; for pest or weed control at 35 g/ha: 35 g ai/ha; for pest or weed control at 70 g/ha: 70 g ai/ha; for pest or weed control at 140 g/ha: 140 g ai/ha
In short: as §1

[9] = system: ECHCG: barnyardgrass (Echinochloa crus-galli); test: Post-emergent herbicidal test, barnyardgrass; conditions: post-emergence, 336 h, 14 days after application, read-out: Visual Growth Reduction (%) 14 Days After Application ECHCG; for pest or weed control at 17.5 g/ha: 17.5 g ai/ha; for pest or weed control at 35 g/ha: 35 g ai/ha; for pest or weed control at 70 g/ha: 70 g ai/ha; for pest or weed control at 140 g/ha: 140 g ai/ha
In short: as §1

[10] = system: BRSNN: oilseed rape, canola (Brassica napus); test: Post-emergent herbicidal test, oilseed rape; conditions: post-emergence, 336 h, 14 days after application, read-out: Visual Growth Reduction (%) 14 Days After Application BRSNN; for pest or weed control at 17.5 g/ha: 17.5 g ai/ha; for pest or weed control at 35 g/ha: 35 g ai/ha; for pest or weed control at 70 g/ha: 70 g ai/ha; for pest or weed control at 140 g/ha: 140 g ai/ha
In short: as §1

[11] = system: VIOTR: wild violet (Viola tricolor); test: Post-emergent herbicidal test, wild violet; conditions: post-emergence, 336 h, 14 days after application, read-out: Visual Growth Reduction (%) 14 Days After Application VIOTR; for pest or weed control at 17.5 g/ha: 17.5 g ai/ha; for pest or weed control at 35 g/ha: 35 g ai/ha; for pest or weed control at 70 g/ha: 70 g ai/ha; for pest or weed control at 140 g/ha: 140 g ai/ha
In short: as §1

Structure (SMILES): Nc1c(F)c(-c2ccc(Cl)c3c2OCO3)nc(C(=O)O)c1Cl [Compound 1, 4-amino-3-chloro-6-(7-chlorobenzo[d][1,3]dioxol-4-yl)-5-fluoropicolinic acid]
- pest or weed control at 17.5 g/ha [1]: 80%
- pest or weed control at 35 g/ha [1]: 85%
- pest or weed control at 70 g/ha [1]: 90%
- pest or weed control at 140 g/ha [1]: 95%
- pest or weed control at 17.5 g/ha [2]: 35%
- pest or weed control at 35 g/ha [2]: 40%
- pest or weed control at 70 g/ha [2]: 80%
- pest or weed control at 140 g/ha [2]: 90%
- pest or weed control at 17.5 g/ha [3]: 85%
- pest or weed control at 35 g/ha [3]: 85%
- pest or weed control at 70 g/ha [3]: 95%
- pest or weed control at 140 g/ha [3]: 90%
- pest or weed control at 17.5 g/ha [4]: 0%
- pest or weed control at 35 g/ha [4]: 20%
- pest or weed control at 70 g/ha [4]: 30%
- pest or weed control at 140 g/ha [4]: 50%
- pest or weed control at 17.5 g/ha [5]: 0%
- pest or weed control at 35 g/ha [5]: 0%
- pest or weed control at 70 g/ha [5]: 10%
- pest or weed control at 140 g/ha [5]: 15%
- pest or weed control at 17.5 g/ha [6]: 35%
- pest or weed control at 35 g/ha [6]: 35%
- pest or weed control at 70 g/ha [6]: 50%
- pest or weed control at 140 g/ha [6]: 60%
- pest or weed control at 17.5 g/ha [7]: 10%
- pest or weed control at 35 g/ha [7]: 10%
- pest or weed control at 70 g/ha [7]: 35%
- pest or weed control at 140 g/ha [7]: 50%
- pest or weed control at 17.5 g/ha [8]: 0%
- pest or weed control at 35 g/ha [8]: 0%
- pest or weed control at 70 g/ha [8]: 5%
- pest or weed control at 140 g/ha [8]: 15%
- pest or weed control at 17.5 g/ha [9]: 0%
- pest or weed control at 35 g/ha [9]: 0%
- pest or weed control at 70 g/ha [9]: 30%
- pest or weed control at 140 g/ha [9]: 40%
- pest or weed control at 17.5 g/ha [10]: 55%
- pest or weed control at 35 g/ha [10]: 100%
- pest or weed control at 70 g/ha [10]: 100%
- pest or weed control at 140 g/ha [10]: 100%
- pest or weed control at 17.5 g/ha [11]: 40%
- pest or weed control at 35 g/ha [11]: 60%
- pest or weed control at 70 g/ha [11]: 70%
- pest or weed control at 140 g/ha [11]: 95%

Structure (SMILES): COC(=O)c1nc(-c2ccc(Cl)c3c2OC(F)(F)O3)c(Cl)c(N)c1Cl [Compound 13]
- pest or weed control at 17.5 g/ha [1]: 30%
- pest or weed control at 35 g/ha [1]: 50%
- pest or weed control at 70 g/ha [1]: 75%
- pest or weed control at 140 g/ha [1]: 80%
- pest or weed control at 17.5 g/ha [2]: 0%
- pest or weed control at 35 g/ha [2]: 0%
- pest or weed control at 70 g/ha [2]: 0%
- pest or weed control at 140 g/ha [2]: 0%
- pest or weed control at 17.5 g/ha [3]: 50%
- pest or weed control at 35 g/ha [3]: 60%
- pest or weed control at 70 g/ha [3]: 80%
- pest or weed control at 140 g/ha [3]: 85%
- pest or weed control at 17.5 g/ha [4]: 0%
- pest or weed control at 35 g/ha [4]: 0%
- pest or weed control at 70 g/ha [4]: 0%
- pest or weed control at 140 g/ha [4]: 0%
- pest or weed control at 17.5 g/ha [5]: 0%
- pest or weed control at 35 g/ha [5]: 10%
- pest or weed control at 70 g/ha [5]: 20%
- pest or weed control at 140 g/ha [5]: 30%
- pest or weed control at 17.5 g/ha [6]: 0%
- pest or weed control at 35 g/ha [6]: 0%
- pest or weed control at 70 g/ha [6]: 0%
- pest or weed control at 140 g/ha [6]: 0%
- pest or weed control at 17.5 g/ha [7]: 0%
- pest or weed control at 35 g/ha [7]: 0%
- pest or weed control at 70 g/ha [7]: 0%
- pest or weed control at 140 g/ha [7]: 0%
- pest or weed control at 17.5 g/ha [8]: 0%
- pest or weed control at 35 g/ha [8]: 0%
- pest or weed control at 70 g/ha [8]: 0%
- pest or weed control at 140 g/ha [8]: 0%
- pest or weed control at 17.5 g/ha [9]: 0%
- pest or weed control at 35 g/ha [9]: 0%
- pest or weed control at 70 g/ha [9]: 0%
- pest or weed control at 140 g/ha [9]: 0%
- pest or weed control at 17.5 g/ha [10]: 40%
- pest or weed control at 35 g/ha [10]: 60%
- pest or weed control at 70 g/ha [10]: 70%
- pest or weed control at 140 g/ha [10]: 80%
- pest or weed control at 17.5 g/ha [11]: 0%
- pest or weed control at 35 g/ha [11]: 0%
- pest or weed control at 70 g/ha [11]: 0%
- pest or weed control at 140 g/ha [11]: 0%
